Patent publication US5536497A, “Fimbrial polypeptides useful in the prevention of periodontitis” (priority 1992, dated 1996)
Read-outs that look alike come from different tables or passages of the source. Square brackets hold non-standard residues; d marks the D form. Peptide text beside a SMILES is read from it. * marks the point of attachment. Sta = CC(C)C[C@H](N)[C@@H](O)CC(=O)O; Isovaleryl = CC(C)CC(=O)*

B1: Trypsin, bovine pancreas type XIII-TPCK: trypsin from bovine pancreas, type XIII, TPCK treated (protein, UniProt P00760 24-246, looked up)
Serine protease 1: IVGGYTCGANTVPYQVSLNSGYHFCGGSLINSQWVVSAAHCYKSGIQVRLGEDNINVVEGNEQFISASKSIVHPSYNSNTLNNDIMLIKLKSAASLNSRVASISLPTSCASAGTQCLISGWGNTKSSGTSYPDVLKCLKAPILSDSSCKSAYPGQITSNMFCAGYLEGGKDSCQGDSGGPVVCSGKLQGIVSWGSGCAQKNKPGVYTKVCNYVSWIKQTIASN
modifications: TPCK treated

Test system: P. gingivalis 2561 binding to sHAP beads
Assay: microbe, parasite or virus in culture
Format: cell-based, Porphyromonas gingivalis
[1] = Table 2, amount 0.1 mg, minus = enhancement of binding

Row | Molecule | Inhibition (%) [1] | also measured
1 | c1cnc2c(c1)ccc1cccnc12 [1,10-Phenanthroline] | – | inhibition at 1000 µM (Porphyromonas gingivalis): -8%
2 | O=C[C@H](O)[C@@H](O)[C@@H](O)[C@H](O)C(=O)O [D-Galacturonic acid] | 21% | –
3 | O=C[C@H](O)[C@@H](O)[C@H](O)[C@H](O)C(=O)O [D-Glucuronic acid] | 33% | –
4 | O=C(O)CN(CCN(CC(=O)O)CC(=O)O)CC(=O)O [EDTA] | – | Inhibition (%): 24
5 | C[C@H](O)[C@@H](O)[C@@H](O)[C@H](O)C=O [Fucose] | 1% | –
6 | N[C@H]1C(O)O[C@H](CO)[C@H](O)[C@@H]1O (some centres unmarked) [Galactosamine] | 8% | –
7 | O=C[C@H](O)[C@@H](O)[C@@H](O)[C@H](O)CO [Galactose] | -7% | –
8 | N[C@H]1C(O)O[C@H](CO)[C@@H](O)[C@@H]1O (some centres unmarked) [Glucosamine] | 0% | –
9 | O=C[C@H](O)[C@@H](O)[C@H](O)[C@H](O)CO [Glucose] | -10% | –
10 | N=C(N)NCCC[C@H](N)C(=O)O [L-Arginine] | 0% | –
11 | NCCCC[C@H](N)C(=O)O [L-Lysine] | 5% | –
12 | OC[C@H]1O[C@@H](O[C@H]2[C@H](O)[C@@H](O)C(O)O[C@@H]2CO)[C@H](O)[C@@H](O)[C@H]1O (some centres unmarked) [Lactose] | -1% | –
13 | CC(=O)N[C@@H](CC(C)C)C(=O)N[C@@H](CC(C)C)C(=O)N[C@H](C=O)CCCNC(=N)N [Leupeptin] | – | inhibition at 2 µM (Porphyromonas gingivalis): 19%
14 | OC[C@H]1O[C@H](O[C@H]2[C@H](O)[C@@H](O)[C@H](O)O[C@@H]2CO)[C@H](O)[C@@H](O)[C@@H]1O [Maltose] | -8% | –
15 | O=C[C@@H](O)[C@@H](O)[C@H](O)[C@H](O)CO [Mannose] | -15% | –
16 | CC(=O)N[C@H]1C(O)O[C@H](CO)[C@H](O)[C@@H]1O (some centres unmarked) [N-Acetylgalactosamine] | -5% | –
17 | CC(=O)N[C@H]1C(O)O[C@H](CO)[C@@H](O)[C@@H]1O (some centres unmarked) [N-Acetylglucosamine] | -15% | –
18 | CC(C)CC(=O)N[C@H](C(=O)N[C@H](C(=O)N[C@@H](CC(C)C)[C@@H](O)CC(=O)N[C@@H](C)C(=O)N[C@@H](CC(C)C)[C@@H](O)CC(=O)O)C(C)C)C(C)C [Pepstatin] (Isovaleryl-VV[Sta]A[Sta]-OH) | – | inhibition at 1 µM (Porphyromonas gingivalis): -10%
19 | O=S(=O)(F)Cc1ccccc1 [Phenylmethylsulfonyl fluoride] | – | Inhibition (%) (Table 2, conc. 2 mM): 13%
20 | CC(=O)N[C@H]1[C@H]([C@H](O)[C@H](O)CO)OC(O)(C(=O)O)C[C@@H]1O (some centres unmarked) [Sialic acid (N-acetyl neuraminic acid), N-acetyl neuraminic acid] | 28% | –
21 | Defatted BSA: defatted BSA, agent tested in Table 2 | – | Inhibition (%) (Table 2, amount l mg): 43%
22 | N-Acetyl neuramin-lactose | 2% | –
23 | Poly-L-lysine | – | Inhibition (%) (Table 2, amount 0.25 mg): 41%
24 | poly-2,8-N-acetyl neuraminic acid | 13% | –
25 | B1 | – | Inhibition (%) (Table 2, amount 100 U): 53%; Reduction of P. gingivalis binding after pretreatment of sHAP beads (sHAP beads pretreated with enzyme prior to being mixed with P. gingivalis cells): approximately 50%
